# Results: ChEMBL document CHEMBL1143857, “(Phenylpiperazinyl)cyclohexylureas: discovery of alpha1a/1d-selective adrenergic receptor antagonists for the treatment of benign prostatic hyperplasia/lower urinary tract symptoms (BPH/LUTS)” (Bioorg Med Chem Lett, 2008)
# pKi: −log10 of the molar value.
# Assays:
# [1] = target: T1, Alpha-1B adrenergic receptor (Homo sapiens, UniProt P35368); assay: Displacement of [125I]HEAT from human recombinant adrenergic Alpha-1B receptor
# T1 sequence (P35368 whole entry): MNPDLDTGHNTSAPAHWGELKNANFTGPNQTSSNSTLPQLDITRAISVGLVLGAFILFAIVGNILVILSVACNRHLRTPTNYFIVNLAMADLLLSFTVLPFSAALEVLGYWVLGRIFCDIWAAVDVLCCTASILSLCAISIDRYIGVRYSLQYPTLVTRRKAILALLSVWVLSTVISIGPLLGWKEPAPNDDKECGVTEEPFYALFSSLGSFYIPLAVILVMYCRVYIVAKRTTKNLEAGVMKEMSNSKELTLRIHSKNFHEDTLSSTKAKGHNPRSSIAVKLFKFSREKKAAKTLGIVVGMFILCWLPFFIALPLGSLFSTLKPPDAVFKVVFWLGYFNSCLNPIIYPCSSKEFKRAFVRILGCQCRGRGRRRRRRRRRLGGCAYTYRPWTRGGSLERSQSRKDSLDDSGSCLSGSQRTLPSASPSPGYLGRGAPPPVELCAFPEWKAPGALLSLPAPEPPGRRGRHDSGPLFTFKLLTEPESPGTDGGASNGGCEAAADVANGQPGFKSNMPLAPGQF
# [2] = target: T2, Alpha-1A adrenergic receptor (Homo sapiens, UniProt P35348); assay: Displacement of [125I]HEAT from human recombinant adrenergic alpha1A receptor
# T2 sequence (P35348 whole entry): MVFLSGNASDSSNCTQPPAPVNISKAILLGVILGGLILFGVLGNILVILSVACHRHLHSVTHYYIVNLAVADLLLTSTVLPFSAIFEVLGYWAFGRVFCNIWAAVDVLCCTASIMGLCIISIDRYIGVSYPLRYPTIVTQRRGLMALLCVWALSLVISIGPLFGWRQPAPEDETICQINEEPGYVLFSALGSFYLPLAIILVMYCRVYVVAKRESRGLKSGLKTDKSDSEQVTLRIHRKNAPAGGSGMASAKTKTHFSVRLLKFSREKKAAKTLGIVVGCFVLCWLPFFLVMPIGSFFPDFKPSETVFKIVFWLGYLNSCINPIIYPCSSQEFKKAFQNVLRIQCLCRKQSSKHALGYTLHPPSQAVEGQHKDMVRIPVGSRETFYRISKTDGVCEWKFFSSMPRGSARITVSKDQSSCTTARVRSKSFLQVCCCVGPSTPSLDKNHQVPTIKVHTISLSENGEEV
# D(2) dopamine receptor = D(2) dopamine receptor (Homo sapiens, UniProt P14416); assay: Displacement of [125I]spiperone from human recombinant dopamine D2 receptor
# Homo sapiens = species: Homo sapiens; assay: Selectivity for human alpha1A receptor over human Alpha-1D receptor
# Chain of D(2) dopamine receptor (P14416 whole entry): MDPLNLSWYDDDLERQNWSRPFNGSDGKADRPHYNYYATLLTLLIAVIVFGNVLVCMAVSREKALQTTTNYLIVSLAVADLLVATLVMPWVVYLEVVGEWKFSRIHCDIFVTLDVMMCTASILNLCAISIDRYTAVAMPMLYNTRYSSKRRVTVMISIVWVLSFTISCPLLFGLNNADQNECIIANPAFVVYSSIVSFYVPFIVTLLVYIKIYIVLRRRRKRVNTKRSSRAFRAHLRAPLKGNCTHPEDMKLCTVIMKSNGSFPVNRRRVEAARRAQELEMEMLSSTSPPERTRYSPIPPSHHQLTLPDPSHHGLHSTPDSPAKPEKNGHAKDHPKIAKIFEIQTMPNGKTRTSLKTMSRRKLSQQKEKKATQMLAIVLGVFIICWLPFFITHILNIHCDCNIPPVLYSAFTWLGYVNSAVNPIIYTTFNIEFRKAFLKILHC
pKi [1],pKi [2],pKi (D(2) dopamine receptor),Ratio Ki (Homo sapiens),SMILES
6.32,7.29,6.99,,CC(C)Oc1ccccc1N1CCN(C2CCC(NC(=O)Nc3c(Cl)cc(Cl)cc3Cl)CC2)CC1 (stereo in doubt)
7.44,8.28,8.62,,CC(C)Oc1ccccc1N1CCN(C2CCC(NC(=O)Nc3c(F)cccc3F)CC2)CC1 (stereo in doubt; trans)
6.02,7.29,6.90,,CC(C)Oc1ccccc1N1CCN(C2CCC(NC(=O)Nc3ccc(F)c(F)c3)CC2)CC1 (cis isomer)
6.15,7.09,6.74,,CC(C)Oc1ccccc1N1CCN(C2CCC(NC(=O)NCc3cccc(F)c3)CC2)CC1 (stereo in doubt; cis)
,7.48,7.26,,CC(C)Oc1ccccc1N1CCN(C2CCC(NC(=O)Nc3c(Cl)cccc3Cl)CC2)CC1 (stereo in doubt; cis)
,7.00,7.00,,COc1ccc(Cl)cc1NC(=O)NC1CCC(N2CCN(c3ccccc3OC(C)C)CC2)CC1 (cis isomer)
,7.47,8.92,,COc1ccc(Cl)cc1NC(=O)NC1CCC(N2CCN(c3ccccc3OC(C)C)CC2)CC1 (trans isomer)
,,,4,CC(C)Oc1ccccc1N1CCN(C2CCC(NC(=O)NCc3cccc(F)c3)CC2)CC1 (stereo in doubt; trans) [listing 1 of 2 here]
7.16,7.96,6.92,,CC(C)Oc1ccccc1N1CCN(C2CCC(NC(=O)NCc3cccc(F)c3)CC2)CC1 (stereo in doubt; trans) [listing 2 of 2 here]
,,,4,CC(C)Oc1ccccc1N1CCN(C2CCC(NC(=O)Nc3c(Cl)cc(Cl)cc3Cl)CC2)CC1 (trans isomer) [listing 1 of 2 here]
7.12,8.51,9.16,,CC(C)Oc1ccccc1N1CCN(C2CCC(NC(=O)Nc3ccc(F)cc3F)CC2)CC1 (trans isomer)
,8.29,7.08,,CC(C)Oc1ccccc1N1CCN(C2CCC(NC(=O)Nc3cccc(Cl)c3)CC2)CC1 (stereo in doubt; trans)
7.44,8.77,9.34,,CC(C)Oc1ccccc1N1CCN(C2CCC(NC(=O)Nc3cc(F)ccc3F)CC2)CC1 (stereo in doubt) [listing 1 of 2 here]
6.32,7.85,7.45,,CC(C)Oc1ccccc1N1CCN(C2CCC(NC(=O)Nc3ccc(F)cc3F)CC2)CC1 (cis isomer)
,7.66,6.97,,CC(C)Oc1ccccc1N1CCN(C2CCC(NC(=O)Nc3cccc(Cl)c3)CC2)CC1 (stereo in doubt; cis)
6.59,7.59,6.70,,CC(C)Oc1ccccc1N1CCN(C2CCC(NC(=O)Nc3cc(F)ccc3F)CC2)CC1 (cis isomer)
,8.21,8.33,,CC(C)Oc1ccccc1N1CCN(C2CCC(NC(=O)Nc3c(Cl)cccc3Cl)CC2)CC1 (stereo in doubt; trans)
6.52,7.28,7.66,,CC(C)Oc1ccccc1N1CCN(C2CCC(NC(=O)Nc3c(F)cccc3F)CC2)CC1 (stereo in doubt; cis)
6.95,8.19,8.19,,CC(C)Oc1ccccc1N1CCN(C2CCC(NC(=O)Nc3c(Cl)cc(Cl)cc3Cl)CC2)CC1 (trans isomer) [listing 2 of 2 here]
,,,4,CC(C)Oc1ccccc1N1CCN(C2CCC(NC(=O)Nc3cc(F)ccc3F)CC2)CC1 (stereo in doubt) [listing 2 of 2 here]
7.22,8.44,7.27,,CC(C)Oc1ccccc1N1CCN(C2CCC(NC(=O)Nc3ccc(F)c(F)c3)CC2)CC1 (stereo in doubt)

SMILES,pKi [1],pKi [2],pKi (D(2) dopamine receptor),Ratio Ki (Homo sapiens)
CC(C)Oc1ccccc1N1CCN(C2CCC(NC(=O)Nc3ccccc3Cl)CC2)CC1 (cis isomer),6.43,7.32,6.06,
COc1ccc(NC(=O)NC2CCC(N3CCN(c4ccccc4OC(C)C)CC3)CC2)c(OC)c1 (stereo in doubt; trans),,7.13,6.05,
CC(C)Oc1ccccc1N1CCN(C2CCC(NC(=O)Nc3ccccc3Cl)CC2)CC1 (stereo in doubt) [listing 1 of 2 here],,,,4
COc1ccccc1NC(=O)NC1CCC(N2CCN(c3ccccc3OC(C)C)CC2)CC1 (stereo in doubt; trans),6.97,7.42,6.04,
CC(C)Oc1ccccc1N1CCN(C2CCC(NC(=O)Nc3ccccc3Cl)CC2)CC1 (stereo in doubt) [listing 2 of 2 here],7.41,7.96,7.48,
COc1ccc(NC(=O)NC2CCC(N3CCN(c4ccccc4OC(C)C)CC3)CC2)c(OC)c1 (stereo in doubt; cis),,6.96,6.54,
COc1ccccc1NC(=O)NC1CCC(N2CCN(c3ccccc3OC(C)C)CC2)CC1 (stereo in doubt; cis),6.65,6.81,6.41,
